The numbers were not newly measured in patent US6797704B2, “Systemic delivery of compounds through non-invasive bladder administration” (The Johns Hopkins University, priority 2000, dated 2004), which cites them from elsewhere.

The conditions of data set [1]: men.
For a further data set, the system named is murine lung tumors. The note with it: co-injection with naked DNA; from more than 250.

Consider `COc1cccc2c1C(=O)c1c(O)c3c(c(O)c1C2=O)C[C@@](O)(C(=O)CO)C[C@@H]3O[C@H]1C[C@H](N)[C@H](O)[C@H](C)O1` [doxorubicin], for which the “systemic absorption following intravesical administration” value in data set [1] is listed as “minimal”.

B1: recombinant murine interleukin-12: cytokine co-injected with naked DNA in a literature lung tumor study (protein, UniProt P43431 23-215; P43432 23-335, looked up)
Interleukin-12 subunit alpha: RVIPVSGPARCLSQSRNLLKTTDDMVKTAREKLKHYSCTAEDIDHEDITRDQTSTLKTCLPLELHKNESCLATRETSSTTRGSCLPPQKTSLMMTLCLGSIYEDLKMYQTEFQAINAALQNHNHQQIILDKGMLVAIDELMQSLNHNGETLRQKPPVGEADPYRVKMKLCILLHAFSTRVVTINRVMGYLSSA
Interleukin-12 subunit beta: MWELEKDVYVVEVDWTPDAPGETVNLTCDTPEEDDITWTSDQRHGVIGSGKTLTITVKEFLDAGQYTCHKGGETLSHSHLLLHKKENGIWSTEILKNFKNKTFLKCEAPNYSGRFTCSWLVQRNMDLKFNIKSSSSSPDSRAVTCGMASLSAEKVTLDQRDYEKYSVSCQEDVTCPTAEETLPIELALEARQQNKYENYSTSFFIRDIIKPDPPKNLQMKPLKNSQVEVSWEYPDSWSTPHSYFSLKFFVRIQRKKEKMKETEEGCNQKGAFLVEKTSTEVQCKGGNVCVQAQDRYYNSSCSKWACVPCRVRS
With B1, in the data set on murine lung tumors, the “number of primary lung metastases” value was “around 10”.
